Results from article PMC12621043, “Un-LOK-ing a New Approach for Conformational Selective Targeting of STK10 (LOK)” (ACS Medicinal Chemistry Letters, 2025).

Biological target: T1, PKMYT1A (Homo sapiens, UniProt Q99640)
T1 construct: purchased in-house DSF kinase panel (SGC-style construct names; the trailing letter is the construct ID)
T1 sequence (Q99640 75-362): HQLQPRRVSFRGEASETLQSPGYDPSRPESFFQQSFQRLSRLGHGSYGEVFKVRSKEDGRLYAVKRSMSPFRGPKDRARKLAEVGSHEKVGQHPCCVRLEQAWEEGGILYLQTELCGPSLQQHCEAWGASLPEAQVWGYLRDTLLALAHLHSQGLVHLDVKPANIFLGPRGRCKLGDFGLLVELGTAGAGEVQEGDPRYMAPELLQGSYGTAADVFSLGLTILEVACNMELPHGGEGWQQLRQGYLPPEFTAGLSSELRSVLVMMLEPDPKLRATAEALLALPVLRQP
Assay: DSF Tm panel
Format: binding
Conditions: 10 μM compound

Question: Which ΔTm at 10 µM does the source give for O=C(NCc1ccccc1)Nc1ccc2cc1OCCOCCNc1ccn3ncc-2c3n1 [compound 16] here?
Answer: 0.6 °C

Question: How did the ΔTm at 10 µM turn out when O=C(NCc1ccccc1Cl)Nc1ccc2cc1OCCOCCNc1ccn3ncc-2c3n1 [compound 17] was run?
Answer: 1 °C

Question: How did the ΔTm at 10 µM turn out when O=C(NCc1cccc(Cl)c1)Nc1ccc2cc1OCCOCCNc1ccn3ncc-2c3n1 [compound 18] was run?
Answer: 1.5 °C

Biological target: T2, MAPK10A (Homo sapiens, UniProt P53779)
T2 construct: purchased in-house DSF kinase panel (SGC-style construct names; the trailing letter is the construct ID)
Assay: DSF Tm panel
Format: binding
Conditions: 10 μM compound

T2 sequence (P53779 39-402): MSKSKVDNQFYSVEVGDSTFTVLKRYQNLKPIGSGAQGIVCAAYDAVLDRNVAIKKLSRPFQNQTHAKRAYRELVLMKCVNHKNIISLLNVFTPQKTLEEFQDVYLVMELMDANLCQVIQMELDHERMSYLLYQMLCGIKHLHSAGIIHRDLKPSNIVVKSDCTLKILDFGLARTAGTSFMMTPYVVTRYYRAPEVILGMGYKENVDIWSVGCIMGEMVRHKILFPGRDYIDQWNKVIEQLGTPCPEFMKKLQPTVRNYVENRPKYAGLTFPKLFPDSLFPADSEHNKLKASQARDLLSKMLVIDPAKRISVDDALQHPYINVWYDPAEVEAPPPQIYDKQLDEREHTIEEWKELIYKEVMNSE

Question: O=C(NCc1ccccc1)Nc1ccc2cc1OCCOCCNc1ccn3ncc-2c3n1 [compound 16] was tested. Which ΔTm at 10 µM did it give?
Answer: -0.3 °C

Question: O=C(NCc1ccccc1Cl)Nc1ccc2cc1OCCOCCNc1ccn3ncc-2c3n1 [compound 17] was tested. Which ΔTm at 10 µM did it give?
Answer: 0.2 °C

Question: How did the ΔTm at 10 µM turn out when O=C(NCc1cccc(Cl)c1)Nc1ccc2cc1OCCOCCNc1ccn3ncc-2c3n1 [compound 18] was run?
Answer: 0.6 °C

Biological target: T3, PAK1A (Homo sapiens, UniProt Q13153)
T3 construct: purchased in-house DSF kinase panel (SGC-style construct names; the trailing letter is the construct ID)
Assay: DSF Tm panel
Format: binding
Conditions: 10 μM compound

T3 sequence (Q13153 249-545): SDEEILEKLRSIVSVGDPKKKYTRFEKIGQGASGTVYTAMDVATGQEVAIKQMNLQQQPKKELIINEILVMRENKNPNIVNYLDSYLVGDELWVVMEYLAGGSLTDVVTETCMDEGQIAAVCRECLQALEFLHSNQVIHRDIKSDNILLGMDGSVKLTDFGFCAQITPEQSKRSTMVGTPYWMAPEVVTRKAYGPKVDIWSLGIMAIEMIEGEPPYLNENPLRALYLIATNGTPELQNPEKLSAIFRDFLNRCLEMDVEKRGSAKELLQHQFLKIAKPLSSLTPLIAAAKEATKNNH

Question: How did the ΔTm at 10 µM turn out when O=C(NCc1ccccc1)Nc1ccc2cc1OCCOCCNc1ccn3ncc-2c3n1 [compound 16] was run?
Answer: 0.1 °C

Question: How did the ΔTm at 10 µM turn out when O=C(NCc1ccccc1Cl)Nc1ccc2cc1OCCOCCNc1ccn3ncc-2c3n1 [compound 17] was run?
Answer: 0.6 °C

Question: With O=C(NCc1cccc(Cl)c1)Nc1ccc2cc1OCCOCCNc1ccn3ncc-2c3n1 [compound 18] as the compound, how does the ΔTm at 10 µM read?
Answer: 0.7 °C

Biological target: T4, EPHA5A (Homo sapiens, UniProt P54756)
T4 construct: purchased in-house DSF kinase panel (SGC-style construct names; the trailing letter is the construct ID)
T4 sequence (P54756 653-939): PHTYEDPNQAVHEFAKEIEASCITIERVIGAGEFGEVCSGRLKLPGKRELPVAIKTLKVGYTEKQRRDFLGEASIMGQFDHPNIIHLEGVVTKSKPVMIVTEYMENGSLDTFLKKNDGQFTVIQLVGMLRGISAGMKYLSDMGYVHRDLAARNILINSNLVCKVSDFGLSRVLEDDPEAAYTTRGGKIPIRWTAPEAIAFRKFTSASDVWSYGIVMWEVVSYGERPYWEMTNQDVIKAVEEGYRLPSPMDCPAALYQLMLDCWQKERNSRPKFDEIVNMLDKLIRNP
Assay: DSF Tm panel
Format: binding
Conditions: 10 μM compound

Question: How did the ΔTm at 10 µM turn out when O=C(NCc1ccccc1)Nc1ccc2cc1OCCOCCNc1ccn3ncc-2c3n1 [compound 16] was run?
Answer: 0.1 °C

Question: O=C(NCc1ccccc1Cl)Nc1ccc2cc1OCCOCCNc1ccn3ncc-2c3n1 [compound 17] was tested. Which ΔTm at 10 µM did it give?
Answer: 0.1 °C

Question: With O=C(NCc1cccc(Cl)c1)Nc1ccc2cc1OCCOCCNc1ccn3ncc-2c3n1 [compound 18] as the compound, how does the ΔTm at 10 µM read?
Answer: 0.4 °C

Biological target: T5, MARK3A (Homo sapiens, UniProt P27448)
T5 construct: purchased in-house DSF kinase panel (SGC-style construct names; the trailing letter is the construct ID)
Assay: DSF Tm panel
Format: binding
Conditions: 10 μM compound

T5 sequence (P27448 56-307): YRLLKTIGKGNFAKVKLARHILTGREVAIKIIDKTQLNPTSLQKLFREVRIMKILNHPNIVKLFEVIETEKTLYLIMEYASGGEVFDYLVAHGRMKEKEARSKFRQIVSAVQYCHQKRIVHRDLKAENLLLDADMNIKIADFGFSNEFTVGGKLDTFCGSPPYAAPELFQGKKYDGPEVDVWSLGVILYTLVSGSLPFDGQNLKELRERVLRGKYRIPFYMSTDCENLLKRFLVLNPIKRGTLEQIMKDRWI

Question: With O=C(NCc1ccccc1)Nc1ccc2cc1OCCOCCNc1ccn3ncc-2c3n1 [compound 16] as the compound, how does the ΔTm at 10 µM read?
Answer: 0.7 °C

Question: For O=C(NCc1ccccc1Cl)Nc1ccc2cc1OCCOCCNc1ccn3ncc-2c3n1 [compound 17], which ΔTm at 10 µM is on record?
Answer: 0.8 °C

Question: How did the ΔTm at 10 µM turn out when O=C(NCc1cccc(Cl)c1)Nc1ccc2cc1OCCOCCNc1ccn3ncc-2c3n1 [compound 18] was run?
Answer: 0.7 °C

Biological target: T6, DAPK1 (DAPK1A) (Homo sapiens, UniProt P53355)
T6 construct: purchased in-house DSF kinase panel (SGC-style construct names; the trailing letter is the construct ID)
Assay: DSF Tm panel
Format: binding
Conditions: 10 μM compound

T6 sequence (P53355 1-285): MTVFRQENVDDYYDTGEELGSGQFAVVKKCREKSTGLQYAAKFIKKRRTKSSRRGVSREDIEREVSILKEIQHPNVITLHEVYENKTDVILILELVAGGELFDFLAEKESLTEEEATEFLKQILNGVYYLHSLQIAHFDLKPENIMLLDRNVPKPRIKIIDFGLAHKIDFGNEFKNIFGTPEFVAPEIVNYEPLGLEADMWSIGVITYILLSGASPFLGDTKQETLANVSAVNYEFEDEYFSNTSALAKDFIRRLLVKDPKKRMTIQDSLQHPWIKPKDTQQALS

Question: With O=C(NCc1ccccc1)Nc1ccc2cc1OCCOCCNc1ccn3ncc-2c3n1 [compound 16] as the compound, how does the ΔTm at 10 µM read?
Answer: 1.3 °C

Question: For O=C(NCc1ccccc1Cl)Nc1ccc2cc1OCCOCCNc1ccn3ncc-2c3n1 [compound 17], which ΔTm at 10 µM is on record?
Answer: 0.1 °C

Question: Which ΔTm at 10 µM does the source give for O=C(NCc1cccc(Cl)c1)Nc1ccc2cc1OCCOCCNc1ccn3ncc-2c3n1 [compound 18] here?
Answer: 0.3 °C

Biological target: T7, MST4A (Homo sapiens, UniProt Q9P289)
T7 construct: purchased in-house DSF kinase panel (SGC-style construct names; the trailing letter is the construct ID)
Assay: DSF Tm panel
Format: binding
Conditions: 10 μM compound

T7 sequence (Q9P289 1-300): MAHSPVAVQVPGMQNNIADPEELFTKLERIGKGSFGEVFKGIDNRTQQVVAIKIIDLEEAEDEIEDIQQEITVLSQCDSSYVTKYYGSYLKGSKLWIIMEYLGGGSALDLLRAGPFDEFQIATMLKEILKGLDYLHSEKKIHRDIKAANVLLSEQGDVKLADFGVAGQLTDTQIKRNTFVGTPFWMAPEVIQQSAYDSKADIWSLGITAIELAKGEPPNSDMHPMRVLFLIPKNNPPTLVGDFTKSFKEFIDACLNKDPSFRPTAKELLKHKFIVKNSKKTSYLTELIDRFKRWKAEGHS

Question: Which ΔTm at 10 µM does the source give for O=C(NCc1ccccc1)Nc1ccc2cc1OCCOCCNc1ccn3ncc-2c3n1 [compound 16] here?
Answer: 1.3 °C

Question: With O=C(NCc1ccccc1Cl)Nc1ccc2cc1OCCOCCNc1ccn3ncc-2c3n1 [compound 17] as the compound, how does the ΔTm at 10 µM read?
Answer: 0.7 °C

Question: O=C(NCc1cccc(Cl)c1)Nc1ccc2cc1OCCOCCNc1ccn3ncc-2c3n1 [compound 18] was tested. Which ΔTm at 10 µM did it give?
Answer: 0.8 °C

Biological target: T8, MAPK15A (MAPK15HSD) (Homo sapiens, UniProt Q8TD08)
T8 sequence (Q8TD08 13-304 limits assumed): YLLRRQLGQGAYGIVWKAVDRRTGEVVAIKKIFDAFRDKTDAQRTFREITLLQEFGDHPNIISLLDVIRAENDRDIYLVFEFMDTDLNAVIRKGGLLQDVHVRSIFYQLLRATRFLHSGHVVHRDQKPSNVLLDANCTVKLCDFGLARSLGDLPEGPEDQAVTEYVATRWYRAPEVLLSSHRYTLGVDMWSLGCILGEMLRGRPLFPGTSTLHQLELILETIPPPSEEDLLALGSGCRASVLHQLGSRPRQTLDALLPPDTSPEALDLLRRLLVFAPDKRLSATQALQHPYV
Assay: DSF Tm panel
Format: binding
Conditions: 10 μM compound

Question: With O=C(NCc1ccccc1)Nc1ccc2cc1OCCOCCNc1ccn3ncc-2c3n1 [compound 16] as the compound, how does the ΔTm at 10 µM read?
Answer: 4.9 °C

Question: For O=C(NCc1ccccc1Cl)Nc1ccc2cc1OCCOCCNc1ccn3ncc-2c3n1 [compound 17], which ΔTm at 10 µM is on record?
Answer: 6 °C

Question: O=C(NCc1cccc(Cl)c1)Nc1ccc2cc1OCCOCCNc1ccn3ncc-2c3n1 [compound 18] was tested. Which ΔTm at 10 µM did it give?
Answer: 2.3 °C

Biological target: T9, MAPK9A (Homo sapiens, UniProt P45984)
T9 construct: purchased in-house DSF kinase panel (SGC-style construct names; the trailing letter is the construct ID)
Assay: DSF Tm panel
Format: binding
Conditions: 10 μM compound

T9 sequence (P45984 7-364): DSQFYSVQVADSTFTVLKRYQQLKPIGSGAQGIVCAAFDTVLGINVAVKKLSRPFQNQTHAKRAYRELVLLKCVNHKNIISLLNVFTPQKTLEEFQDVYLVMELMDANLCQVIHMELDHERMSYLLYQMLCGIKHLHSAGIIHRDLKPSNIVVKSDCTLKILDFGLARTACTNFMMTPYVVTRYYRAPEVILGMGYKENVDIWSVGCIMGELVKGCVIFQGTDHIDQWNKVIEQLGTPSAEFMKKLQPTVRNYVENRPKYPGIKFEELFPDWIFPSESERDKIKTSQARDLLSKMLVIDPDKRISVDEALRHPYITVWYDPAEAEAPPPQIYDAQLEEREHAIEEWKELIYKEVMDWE

Question: O=C(NCc1ccccc1)Nc1ccc2cc1OCCOCCNc1ccn3ncc-2c3n1 [compound 16] was tested. Which ΔTm at 10 µM did it give?
Answer: 1.7 °C

Question: Which ΔTm at 10 µM does the source give for O=C(NCc1ccccc1Cl)Nc1ccc2cc1OCCOCCNc1ccn3ncc-2c3n1 [compound 17] here?
Answer: 0.4 °C

Question: Which ΔTm at 10 µM does the source give for O=C(NCc1cccc(Cl)c1)Nc1ccc2cc1OCCOCCNc1ccn3ncc-2c3n1 [compound 18] here?
Answer: 0.5 °C

Biological target: T10, DYRK2A (Homo sapiens, UniProt Q92630)
T10 construct: purchased in-house DSF kinase panel (SGC-style construct names; the trailing letter is the construct ID)
T10 sequence (Q92630 1-601): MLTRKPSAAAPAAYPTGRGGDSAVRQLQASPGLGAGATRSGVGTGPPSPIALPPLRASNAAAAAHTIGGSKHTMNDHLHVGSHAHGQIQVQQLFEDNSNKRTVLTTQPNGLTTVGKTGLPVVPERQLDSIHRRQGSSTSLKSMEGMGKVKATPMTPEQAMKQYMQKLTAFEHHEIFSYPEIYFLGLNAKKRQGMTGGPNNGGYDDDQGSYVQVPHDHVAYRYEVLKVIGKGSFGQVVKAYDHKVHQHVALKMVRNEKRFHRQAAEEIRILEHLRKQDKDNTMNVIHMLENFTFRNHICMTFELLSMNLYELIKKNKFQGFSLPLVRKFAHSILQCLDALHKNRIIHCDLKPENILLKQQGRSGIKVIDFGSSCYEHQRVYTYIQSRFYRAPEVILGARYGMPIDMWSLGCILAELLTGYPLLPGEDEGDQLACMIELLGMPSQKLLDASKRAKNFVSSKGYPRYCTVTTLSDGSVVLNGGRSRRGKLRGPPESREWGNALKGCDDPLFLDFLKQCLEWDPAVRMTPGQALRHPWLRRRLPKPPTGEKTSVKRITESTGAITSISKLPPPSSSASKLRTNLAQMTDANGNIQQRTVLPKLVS
Assay: DSF Tm panel
Format: binding
Conditions: 10 μM compound

Question: How did the ΔTm at 10 µM turn out when O=C(NCc1ccccc1)Nc1ccc2cc1OCCOCCNc1ccn3ncc-2c3n1 [compound 16] was run?
Answer: 3.7 °C

Question: O=C(NCc1ccccc1Cl)Nc1ccc2cc1OCCOCCNc1ccn3ncc-2c3n1 [compound 17] was tested. Which ΔTm at 10 µM did it give?
Answer: 1.1 °C

Question: How did the ΔTm at 10 µM turn out when O=C(NCc1cccc(Cl)c1)Nc1ccc2cc1OCCOCCNc1ccn3ncc-2c3n1 [compound 18] was run?
Answer: 2.8 °C

Biological target: T11, FESA (Homo sapiens, UniProt P07332)
T11 construct: purchased in-house DSF kinase panel (SGC-style construct names; the trailing letter is the construct ID)
Assay: DSF Tm panel
Format: binding
Conditions: 10 μM compound

T11 sequence (P07332 whole entry): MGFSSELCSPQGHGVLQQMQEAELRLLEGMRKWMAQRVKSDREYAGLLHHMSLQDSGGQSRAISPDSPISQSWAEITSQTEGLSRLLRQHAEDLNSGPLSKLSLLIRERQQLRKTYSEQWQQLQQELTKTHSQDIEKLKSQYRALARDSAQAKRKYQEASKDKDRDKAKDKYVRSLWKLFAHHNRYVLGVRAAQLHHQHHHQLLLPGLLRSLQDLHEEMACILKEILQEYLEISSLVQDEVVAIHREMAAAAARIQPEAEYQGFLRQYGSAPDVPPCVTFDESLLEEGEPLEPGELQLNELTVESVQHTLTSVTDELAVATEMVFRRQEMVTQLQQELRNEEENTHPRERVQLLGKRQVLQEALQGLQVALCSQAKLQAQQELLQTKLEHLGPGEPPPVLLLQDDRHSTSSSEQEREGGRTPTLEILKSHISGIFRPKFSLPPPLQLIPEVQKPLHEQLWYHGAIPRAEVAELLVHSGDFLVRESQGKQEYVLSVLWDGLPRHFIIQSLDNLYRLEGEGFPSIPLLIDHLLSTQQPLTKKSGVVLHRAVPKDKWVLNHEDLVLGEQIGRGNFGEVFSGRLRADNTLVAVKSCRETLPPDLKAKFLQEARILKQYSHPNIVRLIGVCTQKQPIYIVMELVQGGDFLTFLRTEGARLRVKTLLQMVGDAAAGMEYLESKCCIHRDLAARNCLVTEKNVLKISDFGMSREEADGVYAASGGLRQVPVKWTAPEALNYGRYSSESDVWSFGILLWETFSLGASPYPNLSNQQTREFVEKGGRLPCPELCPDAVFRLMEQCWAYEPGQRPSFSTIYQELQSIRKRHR

Question: How did the ΔTm at 10 µM turn out when O=C(NCc1ccccc1)Nc1ccc2cc1OCCOCCNc1ccn3ncc-2c3n1 [compound 16] was run?
Answer: 3 °C

Question: With O=C(NCc1ccccc1Cl)Nc1ccc2cc1OCCOCCNc1ccn3ncc-2c3n1 [compound 17] as the compound, how does the ΔTm at 10 µM read?
Answer: 0.2 °C

Question: Which ΔTm at 10 µM does the source give for O=C(NCc1cccc(Cl)c1)Nc1ccc2cc1OCCOCCNc1ccn3ncc-2c3n1 [compound 18] here?
Answer: 0.1 °C

Biological target: T12, MAPK1A (Homo sapiens, UniProt P28482)
T12 construct: purchased in-house DSF kinase panel (SGC-style construct names; the trailing letter is the construct ID)
Assay: DSF Tm panel
Format: binding
Conditions: 10 μM compound

T12 sequence (P28482 whole entry): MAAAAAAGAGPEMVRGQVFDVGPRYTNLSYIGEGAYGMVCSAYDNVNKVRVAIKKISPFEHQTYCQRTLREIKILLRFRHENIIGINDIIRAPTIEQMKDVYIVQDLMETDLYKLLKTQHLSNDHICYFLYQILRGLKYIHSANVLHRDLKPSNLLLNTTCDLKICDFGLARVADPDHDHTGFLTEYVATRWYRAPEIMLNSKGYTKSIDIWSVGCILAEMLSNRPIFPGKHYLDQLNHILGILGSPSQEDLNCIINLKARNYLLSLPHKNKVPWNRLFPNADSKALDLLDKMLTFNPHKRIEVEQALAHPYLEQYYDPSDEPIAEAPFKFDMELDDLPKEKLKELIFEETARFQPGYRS

Question: O=C(NCc1ccccc1)Nc1ccc2cc1OCCOCCNc1ccn3ncc-2c3n1 [compound 16] was tested. Which ΔTm at 10 µM did it give?
Answer: -0.1 °C

Question: For O=C(NCc1ccccc1Cl)Nc1ccc2cc1OCCOCCNc1ccn3ncc-2c3n1 [compound 17], which ΔTm at 10 µM is on record?
Answer: 0.3 °C

Question: How did the ΔTm at 10 µM turn out when O=C(NCc1cccc(Cl)c1)Nc1ccc2cc1OCCOCCNc1ccn3ncc-2c3n1 [compound 18] was run?
Answer: 0.7 °C

Biological target: T13, EPHA7A (Homo sapiens, UniProt Q15375)
T13 construct: purchased in-house DSF kinase panel (SGC-style construct names; the trailing letter is the construct ID)
Assay: DSF Tm panel
Format: binding
Conditions: 10 μM compound

T13 sequence (Q15375 590-899): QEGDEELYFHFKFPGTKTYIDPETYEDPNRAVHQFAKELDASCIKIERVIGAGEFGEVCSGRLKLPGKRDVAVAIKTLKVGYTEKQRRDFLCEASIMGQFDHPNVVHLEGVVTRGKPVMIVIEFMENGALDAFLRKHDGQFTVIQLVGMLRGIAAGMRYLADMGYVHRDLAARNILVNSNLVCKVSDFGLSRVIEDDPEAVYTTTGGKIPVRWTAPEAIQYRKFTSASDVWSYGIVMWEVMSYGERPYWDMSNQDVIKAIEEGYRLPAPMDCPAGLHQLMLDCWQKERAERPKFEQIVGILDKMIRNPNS

Question: O=C(NCc1ccccc1)Nc1ccc2cc1OCCOCCNc1ccn3ncc-2c3n1 [compound 16] was tested. Which ΔTm at 10 µM did it give?
Answer: -0.1 °C

Question: With O=C(NCc1ccccc1Cl)Nc1ccc2cc1OCCOCCNc1ccn3ncc-2c3n1 [compound 17] as the compound, how does the ΔTm at 10 µM read?
Answer: 0.4 °C

Question: O=C(NCc1cccc(Cl)c1)Nc1ccc2cc1OCCOCCNc1ccn3ncc-2c3n1 [compound 18] was tested. Which ΔTm at 10 µM did it give?
Answer: 0.8 °C

Biological target: T14, CAMK2DA (Homo sapiens, UniProt Q13557)
T14 construct: purchased in-house DSF kinase panel (SGC-style construct names; the trailing letter is the construct ID)
Assay: DSF Tm panel
Format: binding
Conditions: 10 μM compound

T14 sequence (Q13557 11-309): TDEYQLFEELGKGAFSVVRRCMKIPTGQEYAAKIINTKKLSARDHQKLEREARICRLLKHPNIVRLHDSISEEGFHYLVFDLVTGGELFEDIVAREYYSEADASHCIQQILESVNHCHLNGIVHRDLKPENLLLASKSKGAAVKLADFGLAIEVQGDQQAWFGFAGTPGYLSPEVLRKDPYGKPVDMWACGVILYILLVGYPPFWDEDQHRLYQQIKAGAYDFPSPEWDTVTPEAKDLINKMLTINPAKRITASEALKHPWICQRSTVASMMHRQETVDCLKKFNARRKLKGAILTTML

Question: How did the ΔTm at 10 µM turn out when O=C(NCc1ccccc1)Nc1ccc2cc1OCCOCCNc1ccn3ncc-2c3n1 [compound 16] was run?
Answer: 0.2 °C

Question: O=C(NCc1ccccc1Cl)Nc1ccc2cc1OCCOCCNc1ccn3ncc-2c3n1 [compound 17] was tested. Which ΔTm at 10 µM did it give?
Answer: 0.4 °C

Question: How did the ΔTm at 10 µM turn out when O=C(NCc1cccc(Cl)c1)Nc1ccc2cc1OCCOCCNc1ccn3ncc-2c3n1 [compound 18] was run?
Answer: 0.5 °C
